Measurements taken from patent US12268676B2, “Antiviral applications of picolinic acid and its derivatives” (INDIAN INSTITUTE OF SCIENCE, priority 2021, dated 2025).
Read-outs that look alike come from different tables or passages of the source.

Key:
[1] = test system: pseudotyped SARS CoV-2 particles; test: microbe, parasite or virus in culture; assay type: cell-based
[2] = mouse, in vivo
[3] = test system: Para Influenza virus (HPIV Luc); test: microbe, parasite or virus in culture; assay type: cell-based, Human parainfluenza virus; details: unidentified influenza virus
PR8 WT virus [4] = test: IAV time of addition assay (IFA for NP, western blot), Example 10; assay type: cell-based, Influenza A virus; details: for inhibition at 2000 µM: Influenza A virus
Zika Luc = test: microbe, parasite or virus in culture; assay type: cell-based; details: A549, 48 h, read-out: inhibition (luciferase, normalized with untreated control)
[5] = test system: Influenza A viruses (IAVs); test: microbe, parasite or virus in culture; assay type: cell-based, Influenza A virus
SARS-CoV-2 = test: SARS CoV-2 time of addition assay (IFA for spike, western blot); assay type: cell-based; details: for virus replication mitigated (spike positive cells, IFA): 10 MOI
SARS-CoV-2 spike protein = test: SARS-CoV-2 spike induced syncytia assay; assay type: cell-based; details: Severe acute respiratory syndrome coronavirus 2, Vero C1008, 24 h, read-out: inhibition of syncytia (area, percentage of untreated control)
A549 cells = test: Cytotoxicity of PA, Alamar Blue cell viability; assay type: cell-based, human
Experimental: Cytotoxicity of picolinic acid (PA) was tested by incubating human lung epithelial cells (A549 cells) with increasing concentrations of PA for up to 72 hrs and cell viability was measured at every 12 hr time intervals using Alamar Blue cell viability reagent (FIG. 1A). A549 cells were procured from ATCC, Manassas, Va., USA.
A549 cells were seeded in 96-well cell culture dishes and 24 hr later treated with 0.02, 0.2, 2, and 20 mM PA in triplicates. Cells were then incubated at 37° C., 5% CO2, and cytotoxicity was measured at 12, 24, 36, 48, 60, and 72 hr post-treatment using AlamarBlue™ Cell Viability Reagent (DAL 1025, Thermo Fisher) as per manufacturer's instructions.

[6] = test system: clathrin mediated endocytosis; test: Transferrin uptake assay, flow cytometry; details: A549, 2 mM PA, 1 hr pulse with 25 μg/mL Tf647
[7] = test system: Herpes Simplex virus 1 (HSV1 Luc); test: microbe, parasite or virus in culture; assay type: cell-based; details: Human alphaherpesvirus 1, A549, 48 h, read-out: inhibition in reporter virus assay
PR8 WT virus [8] = assay type: in vivo, BALB/c mice; details: for reduction of infectious virus titer in lung homogenates (plaque assay): 20 mg/kg PA prophylactically
[9] = test system: Influenza virus (NS1 Luc); test: microbe, parasite or virus in culture; assay type: cell-based, Influenza A virus; details: unidentified influenza virus, A549, read-out: inhibition of virus (luminescence, percentage of untreated virus control)
[10] = test system: SARS-CoV-2 (isolate hCoV-19/Hong Kong/VM20001061/2020); test: SARS-CoV-2 multi-cycle infection, viral RNA by qRT-PCR; assay type: cell-based; details: for decrease in total viral RNA copy numbers: 0.01 MOI, 48 hr (FIG. 6)
[11] = test system: R18 labelled PR8 WT virus; test: Influenza virus membrane fusion assay (R18 fluorescence); assay type: cell-based, Influenza A virus
[12] = test system: Japanese Encephalitis Virus (JEV) clinical strain P20778; test: JEV infection, western blot of flavivirus envelope protein; assay type: cell-based; details: 2 mM PA
[13] = test system: Tf647 labelled endocytic vesicles; test: Localization of transferrin labelled vesicles, confocal microscopy; assay type: cell-based; details: VeroE6, 2 mM PA, 100 MOI PR8 WT virus
Experimental: Localization of transferrin labelled vesicles: Vero cells were seeded on glass coverslips in a 12 well dish to reach 70-80% confluency next day. After 3 hr treatment/not with 2 mM PA, cells were washed once with ice cold PBS and the plate was placed on ice for 10 min before incubating with OptiMEM containing PR8 wild type virus (100 MOI) and 25 μg/mL Transferrin 647 (Tf-647) for 1 hr on ice. Cells were washed twice with PBS and the plate moved to 37° C. After a 15 min chase, cells were fixed with 4% PFA, labelled with anti influenza virus HA antibody (PY102) followed by anti-mouse Alexa 488 secondary antibody to label the virus particles. Nuclei were labelled using 0.1 μg/mL DAPI. Images were acquired using a Zeiss LSM-880 Multiphoton microscope.
The dispersion of transferrin labelled vesicles from perinuclear region to cell periphery was quantified by drawing region of interests (ROIs) up to 20 μm away from the nuclei. The fluorescence intensity of Tf-647 labelled vesicles was then measured along this distance using ImageJ/Fiji.

Structure (SMILES): O=C(O)c1ccccn1 [PA, pyridine-2-carboxylic acid]
- more effective than CM [1]: ~10%
- inhibition at 2000 µM ([1]; Severe acute respiratory syndrome coronavirus 2, 60 h, read-out: inhibition of SARS-CoV-2 spike pseudotyped particles (firefly luciferase normalized to virus control)): 90%
- inhibition at 2000 µM ([1]; Severe acute respiratory syndrome coronavirus 2, read-out: inhibition of pseudotyped SARS CoV-2 virus entry): > 50%
- toxicity (bodyweight changes over 9 days) [2]: toxic
- body weight vs PBS treated control ([2]; ip): no differences in body weight
- decrease in total body weight ([2]; ip): 10-12%
- inhibition at 2000 µM ([3]; A549, 48 h, read-out: inhibition in reporter virus assay): 80 to 90%
- inhibition at 2000 µM ([3]; A549, read-out: inhibition of virus (luminescence, percentage of untreated virus control)): 70 to 80%
- NP positive cells (IFA) (PR8 WT virus [4]): No differences
- inhibition at 2000 µM (PR8 WT virus [4]; PR8, 1 h, read-out: inhibition (IFA for nucleoprotein and western blot)): 50%
- inhibition at 2000 µM (PR8 WT virus [4]; PR8, A549, 3 h, read-out: inhibition (IFA, NP)): 80%
- inhibition at 2000 µM (Zika Luc): > 90%
- reduction in virus titer [5]: 3 fold
- inhibition at 2000 µM ([5]; Influenza A virus, PR8, MDCK2, 48 h, read-out: maximum inhibition of infectious virus (plaque assay)): 50%
- inhibition of virus (IFA, western blot) (SARS-CoV-2; HEK ACE2, PA added 6 hr post infection, collected 3 hr later): ~50%
- inhibition of virus (IFA, western blot) (SARS-CoV-2; HEK ACE2, no pre-treatment, infected in presence of drug (T0)): almost no inhibition
- virus replication mitigated (spike positive cells, IFA) (SARS-CoV-2; HEK ACE2, pre-treated 3 hr with 2 mM PA (-3 hr)): > 80%
- inhibition of virus (IFA, western blot) (SARS-CoV-2; VeroE6, PA added 6 hr post infection, collected 3 hr later): no inhibition
- inhibition of virus (IFA, western blot) (SARS-CoV-2; VeroE6, no pre-treatment, infected in presence of drug (T0)): almost no inhibition
- virus replication mitigated (spike positive cells, IFA) (SARS-CoV-2; VeroE6, pre-treated 3 hr with 2 mM PA (-3 hr)): > 80%
- inhibition at 1000 µM (SARS-CoV-2 spike protein): 70%
- inhibition at 2000 µM (SARS-CoV-2 spike protein): 80%
- cell viability (A549 cells; 20 mM PA, 36 hr post treatment): loss of cell viability
- drug concentration non-toxic to cells (A549 cells; over the period of 72 hr): up to 2 mM
- cellular uptake of transferrin (Tf647 positive cells) [6]: did not show any differences
- inhibition at 2000 µM [7]: 80 to 90%
- reduction of infectious virus titer in lung homogenates (plaque assay) (PR8 WT virus [8]; IP route): > 10 fold
- reduction of infectious virus titer in lung homogenates (plaque assay) (PR8 WT virus [8]; oral route): > 10 fold
- survival (PR8 WT virus [8]; IP prophylactic group, 7 days p.i.): 80%
- bodyweight rescue compared to virus control (PR8 WT virus [8]; IP prophylactic group, day 7): > 10%
- rescue of total animal body weight (PR8 WT virus [8]; all groups): Over 90%
- abrogation of lung virus titers, IP vs oral route (PR8 WT virus [8]; mouse, in vivo): more effective
- clinical scores of histology sections (PR8 WT virus [8]; mouse, in vivo): recovery
- lung histology analysis (PR8 WT virus [8]; mouse, in vivo): marked reduction in pathology
- animal survival (PR8 WT virus [8]; mouse, in vivo, ip): completely rescue
- lung histology analysis (PR8 WT virus [8]; mouse, in vivo, po): best rescue
- inhibition at 2000 µM [9]: 70 to 80%
- decrease in total viral RNA copy numbers ([10]; Calu3, 2 mM PA): ~1 log10
- reduction in viral load ([10]; Calu3, 2 mM PA, 0.1 MOI, 48 hr (FIG. 7E)): 2 log
- decrease in total viral RNA copy numbers ([10]; HEK ACE2, 2 mM PA): three
- decrease in total viral RNA copy numbers ([10]; VeroE6, 2 mM PA): three
- virus-entry associated increase in fluorescence intensity [11]: able to inhibit
- flavivirus envelope protein by western blot ([12]; 0.1 MOI, 48 hr post infection (FIG. 7K)): inhibition
- decrease in the flavivirus envelope protein expression (western blot) ([12]; VeroE6 cells, 48 hr post infection, normalized against actin): 0.75 fold
- distance of Tf647 labelled endocytic vesicles from the nuclei [13]: 15-20 microns
